# Like-named read-outs stand apart in the source and are kept apart here.
# Experiments:
# transfected CHO cells = assay: Survival/selection/growth of transfected CHO cells in MPP+; assay type: cell-based, Chinese hamster
# Description: Using the above methods, the PC12 cDNA library constructed in the plasmid expression vector CDM8 was transfected into CHO cells. Using the selectable marker RSV- neo (Walker, Weizmann Institute, Israel), […] independent stable transformants were obtained after selection in the neomycin analogue G418 at 400 μg/ml effective dose. These cells were then selected at 40% confluence in 1 mM MPP^+. […] However, at four weeks, a colony of cells without refractile inclusions appeared and rapidly covered the plate. The apparently normal growth of these cells in the presence of 1 mM MPP^+ stands in marked contrast to all of the resistant clones obtained without transfection, which grew very slowly if at all. […] However, at 1 mM MPP^+, the resistant cells did show some toxicity, particularly when the assay was performed at higher cell density.
# To identify the cDNA sequences responsible for conferring resistance to MPP^+, integrated plasmids were rescued from the primary CHO transformant obtained as described above in Example 1. […] The primary MPP^+ -resistant CHO transformant was amplified in culture and following cell lysis in 5M guanidinium isothiocyanate, the high molecular weight DNA prepared by repeated precipitation in isopropanol. After digestion with Not I, which cleaves the CDM8 vector once downstream of the cDNA insertion site as well as at rare eight-nucleotide recognition sites elsewhere in the genome, the DNA was religated and transformed into E. coli by electroporation as described by Stern-Bach et al., J. Biol. Chem. 265:3961-3966 (1990). Four pools of the derived plasmids containing approximately 50 colonies each were transfected into CHO cells and after two days were selected in 1 mM MPP^+. Four weeks later, one pool gave rise to several MPP^+ -resistant colonies, two pools gave rise to 1-2 colonies and the fourth pool and CDM8 vector gave rise to no healthy, resistant colonies. Restriction enzyme analysis of the plasmids in the pool conferring the highest frequency of resistance to MPP^+ indicated three independent clones of 1.0, 1.3 and 2.5 kb. […]
# PC12 cells [1] = conditions: cited from earlier work
# [2] = tested on: MPP^+ -resistant CHO cells; assay: MTT cytotoxicity assay in MPP+-resistant transfected CHO cells; assay type: cell-based, Chinese hamster
# Description: (§1) Differential susceptibility to the respiratory complex I inhibitors MPP^+ and rotenone was shown by measuring toxicity by measuring general cell dehydrogenase activity with reduction of a tetrazolium dye (MTT) in a spectrophotometric plate assay as described by Hansen et al., J. Immunol. Methods 119:203-210 (1989). Briefly, a stock solution of MTT (3,(4,5-dimethylthiazol-2-yl)2,5-diphenyltetrazolium bromide) was dissolved at a concentration of 5 mg/ml in sterile phosphate buffered saline at room temperature. To each well was added 25 μl of the stock solution. After two hours of incubation at 37° C., 100 μl of extraction buffer (20% w/v of SDS in a solution of 50% each dimethylformamide and demineralized water with the pH adjusted to 4.7 with acetic acid and HCl). After an overnight incubation at 37° C., the optical densities at 570 nm were measured using a multiscanner, employing the extraction buffer as the blank. This assay was carried out in triplicate on 96-well plates (NUNC, Denmark). MPP^+ and rotenone at the concentrations indicated in FIG. 6a and 6b, respectively, was added to wild-type and MPP^+ -resistant CHO cells at approximately 50% confluence, and toxicity was assayed after 2-3 days by measuring general cell dehydrogenase activity with the reduction of the tetrazolium dye MTT (3,(4,5-dimethylthiazol-2-yl)2,5-diphenyl-tetrazolium bromide). After addition of the dye at a final concentration of 1 mg/ml, the cells were incubated for two hours at 37° C. and the formazan product was solubilized in 10% sodium dodecyl sulfate (SDS). The plates were maintained at 37° C. for an additional twenty hours and the optical density was determined in an ELISA plate reader at a test wavelength of 570 nm, a reference wavelength of 630 nm and a calibration setting of 1.99. All determinations were performed in triplicate and expressed as the mean, with the error bars representing standard deviation (FIG. 6a and 6b).
# To determine whether an alteration in the process of respiration was responsible for the resistance to MPP^+, the effects of other known respiratory inhibitors were examined. […] Thus, if the resistance were due to a change in the site of action, the transfected cells should also show resistance to rotenone. […] However, rotenone is considered to have its selected effect on respiration at relatively low doses, and an additional, less specific effect at higher doses.
# Therefore, the toxicity of MPP^+ to transfected cells in the presence of 1 μM reserpine was examined.
# wild-type CHO cells = assay: MTT cytotoxicity assay in wild-type CHO cells; assay type: cell-based, Chinese hamster; conditions: wild-type CHO, 2-3 days
# Description: as §1
# Untransfected CHO cells = assay: Survival/selection of untransfected CHO cells in MPP+; assay type: cell-based, Chinese hamster; conditions: 500 μM
# Description: To determine whether the transfer of DNA sequences from PC12 cells into CHO cells could be used to generate stable CHO transformants resistant to MPP^+, it was first necessary to determine the spontaneous rate of resistance under different culture conditions. […] Selection of one million CHO cells at intermediate density (25-50% confluence) in 500 μM MPP^+ gave rise to 5-10 small colonies after one month. However, these cells contained particulate inclusions characteristic of MPP^+ toxicity, and grew very slowly even when maintained at low density. At moderate density, the cells degenerated further and detached from the plate.
# CHO cells = assay: Inhibition of protein synthesis in CHO cells by MPP+
# chromaffin cells = conditions: [3H]-MPP+ accumulated; cited from earlier work
# [3] = target: T1, chromaffin granule amine transport protein (Rattus norvegicus, UniProt Q01818); assay: Quantitative [3H]dopamine transport assay with mpp^res CHO cell homogenate; assay type: biochemical; conditions: for rank order for affinity of substrates: quantitative assay
# T1 sequence (Q01818 1-521): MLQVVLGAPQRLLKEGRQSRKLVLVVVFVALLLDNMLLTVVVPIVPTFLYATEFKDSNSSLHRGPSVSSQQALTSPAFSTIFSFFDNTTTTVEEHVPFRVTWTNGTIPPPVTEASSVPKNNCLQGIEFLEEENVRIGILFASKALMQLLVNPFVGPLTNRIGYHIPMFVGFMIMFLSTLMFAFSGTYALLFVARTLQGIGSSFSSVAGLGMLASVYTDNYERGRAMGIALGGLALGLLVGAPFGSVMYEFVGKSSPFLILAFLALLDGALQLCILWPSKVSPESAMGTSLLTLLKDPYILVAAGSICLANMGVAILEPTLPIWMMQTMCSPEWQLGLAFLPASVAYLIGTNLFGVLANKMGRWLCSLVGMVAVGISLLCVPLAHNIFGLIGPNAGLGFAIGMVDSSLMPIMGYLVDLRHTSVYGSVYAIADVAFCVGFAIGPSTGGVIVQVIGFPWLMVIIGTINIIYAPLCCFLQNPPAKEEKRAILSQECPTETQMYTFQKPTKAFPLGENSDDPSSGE
# Description: The quantity of label bound is measured after filtration of the assay mixture. Preferably, the label is a radioactive label. […] This can be done by standard graphic kinetic techniques such as the Lineweaver-Burke plot.
# Incubation was performed at 29° C. for the time period indicated (from 2 minutes to 30 minutes). The assay was terminated by dilution in cold assay buffer followed by filtration through 0.2 μm Supor™ 200 membranes (Gelman, Ann Arbor, Mich.) and the bound radioactivity was measured. The cells used for the quantitative assay are selected in MPP^+ or screened with antibody to ensure that they express the transporter at high levels, as it is difficult to measure activity in this assay at low levels of transporter expression.
# The quantitative transport test was performed as described above on wild-type CHO cells and mpp^res CHO cells.
# PC12 cells [4] = assay: cells; conditions: Rattus norvegicus, PC-12, 1 h, read-out: [^3 H]-Dopamine Uptake (PC12)
# Description: The effects of various pharmacologic agents were tested to determine whether the properties of the protein encoded by the mpp^res cDNA corresponded with those expected for the chromaffin granule amine transport protein. […] The cells were pre-incubated in Krebs-Ringer buffer containing 1 μM pargyline and the dose of the drug indicated for 15 minutes. […] Values were determined from three separate wells and the mean was expressed as percent of control uptake±standard deviation.
# [5] = target: T1, chromaffin granule amine transport protein; assay: cell-based; assay type: cell-based; conditions: for Dopamine Fluorescence (mpp^res CHO): untreated control ++++, 12 hour dopamine loading; for inhibition of vesicular amine uptake/transport (fluorescence assay, in words): concentrations of Table 1
# Description: Uptake and cellular compartmentalization of loaded dopamine were performed by growing cells on poly-lysine-coated glass coverslips. […] The cells were then washed three times in 0.1M sodium phosphate, pH 7.4, and incubated at 4° C. in 2% glyoxylic acid/0.5 mg% MgCl2, pH 4.9-5.0 for three minutes as described by de la Torre, J. Neurosci. Meth. 3:1-5 (1980). Briefly, excess solution is wiped off the bottom and edges of the slide using absorbent paper, taking care not to touch the section. The coverslips were then drained thoroughly, dried in air at 45° C. heated to 80° C. for five minutes, inverted over mineral oil on glass slides and examined under fluorescence using the appropriate filters as described by Knigge et al., Brain Res. 120:393-405 (1977). Briefly, the preparations were infiltrated with warm immersion oil and examined in a Leitz MPV2 microspectrofluorometer equipped with Schoffel excitation and emission grating monochromators, photomultipliers, and ratio computing circuitry. Cells were scanned with either monochromatic light (370 nm) or narrow band excitation (S405, BG3) light for the purpose of identifying fluorescence within cells. Ploem illumination was used in combination with a X 63 or X 100 oil immersion objective.
# Dopamine-loaded fluorescence was carried out as described in Example 1. […] Glyoxylic-acid-induced fluorescence was used to determine the intracellular distribution as described above in Example 1. The procedures were the same as described in Example 1 however a pure cDNA clone encoding the vesicle membrane transport protein, selected in the presence of MPP^+, obtained as described herein, was used rather than the primary transformant. […]
# The effects of various pharmacologic agents were tested to determine whether the properties of the protein encoded by the mpp^res cDNA corresponded with those expected for the chromaffin granule amine transport protein. […] The cells were pre-incubated in Krebs-Ringer buffer containing 1 μM pargyline and the dose of the drug indicated for 15 minutes. 25 nM [^3 H]-dopamine was then added in the same buffer and after incubation at 37° C. for one hour, the cells were washed in cold Krebs-Ringer buffer, lysed and counted in Ecolite (ICN) as described by Greene and Rein, Brain Res. 129:247-263 (1978). Values were determined from three separate wells and the mean was expressed as percent of control uptake±standard deviation. […] The dose required to inhibit maximal uptake by 50%, Ki, was estimated from the fluorescence data using a range of concentrations for each agent.
compound,measurement,setting,value
"C[n+]1ccc(-c2ccccc2)cc1 [MPP^+, 1-methyl-4-phenylpyridinium]",toxicity in library-transfected CHO cells,"transfected CHO cells; 1 mM, 40% confluence",Virtually all of the cells developed toxicity within one week
same,growth of the resistant clone in MPP+,"transfected CHO cells; vs untreated wild-type cells, particularly at higher densities",slightly more slowly
same,PC12 cell death,PC12 cells [1]; 100 μM,death by two weeks
same,PC12 cell death,PC12 cells [1]; 1 mM,cell death by four days
same,MPP+ toxicity (MTT assay),"[2]; resistant cells, 1 mM, particularly at higher cell density",some toxicity
same,MPP+ toxicity (MTT assay),"[2]; resistant clone, 2-3 days",relative lack of toxicity
same,MPP+ toxicity (MTT assay),wild-type CHO cells,steep dose-response curve
same,number of resistant colonies from one million CHO cells,"Untransfected CHO cells; 25-50% confluence, after one month",5-10 small colonies
same,cell survival in MPP+,Untransfected CHO cells; high density (more than 75% confluence),all of the cells died within 24 hours
same,cell survival in MPP+,Untransfected CHO cells; low density (less than 25% confluence),"the cells stopped growing, gradually acquiring refractile cytoplasmic inclusions, swelling and eventually detaching from the plate after several weeks"
same,acquired resistance of untransfected CHO cells,Untransfected CHO cells; selection for over two months,little resistance
same,sensitivity of CHO cells to MPP+ relative to PC12 cells,CHO cells,greater sensitivity to MPP^+ than PC12 cells
same,inhibition of protein synthesis,"CHO cells; over 100 μM, 2-3 days, high density CHO cells",virtually complete inhibition of protein synthesis
same,toxicity to chromaffin cells,chromaffin cells,relatively little toxicity
N#CC(C#N)=NNc1cccc(Cl)c1 [carbonyl cyanide m-chlorophenylhydrazone],dopamine incorporation by mpp^res cells,[3]; 5 μM,blocked
CCN(CC)CCCC(C)Nc1ccnc2cc(Cl)ccc12 (stereo not drawn) [chloroquine],activity at 500 µM,PC12 cells [4],17 ± 1%
same,Dopamine Fluorescence (mpp^res CHO),[5]; agent 500 μM,0
same,"inhibition of vesicular amine uptake/transport (fluorescence assay, in words)",[5],inhibited vesicular amine uptake
CNCCCN1c2ccccc2CCc2ccccc21 [desipramine],Ki,"[5]; dose required to inhibit maximal uptake by 50%, estimated from fluorescence data, read-out: Ki (est)",500 µM
NCCc1ccc(O)c(O)c1 [dopamine],rank order for affinity of substrates,[3],serotonin>epinephrine>dopamine>norepinephrine
CNC[C@H](O)c1ccc(O)c(O)c1 [epinephrine],rank order for affinity of substrates,[3],serotonin>epinephrine>dopamine>norepinephrine
NC[C@H](O)c1ccc(O)c(O)c1 [norepinephrine],rank order for affinity of substrates,[3],serotonin>epinephrine>dopamine>norepinephrine
NCCc1c[nH]c2ccc(O)cc12 [serotonin],rank order for affinity of substrates,[3],serotonin>epinephrine>dopamine>norepinephrine
COc1ccc(CCN(C)CCCC(C#N)(c2ccc(OC)c(OC)c2)C(C)C)cc1OC (stereo not drawn) [verapamil],activity at 100 µM,PC12 cells [4],21 ± 1%
same,Ki,[5],50 µM
same,Dopamine Fluorescence (mpp^res CHO),[5]; agent 100 μM,0
same,"inhibition of vesicular amine uptake/transport (fluorescence assay, in words)",[5],"inhibited transport, but at high concentrations"
